Results taken from patent publication US9868744B2, “Heteroaromatic compounds and their use as dopamine D1 ligands” (PFIZER INC., priority 2014, dated 2018).
Like-named read-outs stand apart in the source and are kept apart here.

Molecular target: Human D1 Receptor (Homo sapiens (Human), UniProt P21728)
Assay: Human D1 receptor binding assay ([^3H]-SCH23390 competition)
Conditions: read-out: Human D1 Receptor Binding, Ki (nM), Geometric mean of 2-4 determinations (unless otherwise indicated)
Protocol: D1 binding assays were performed using over-expressing LTK human cell lines. […] These ligand and tissue concentrations were used in time course studies to determine linearity and equilibrium conditions for binding. […] The pellet was resuspended in assay buffer [50 mM Tris (pH 7.4@ RT) containing 4 mM MgSO4 and 0.5 mM EDTA]. […] Non-specific binding was determined by radioligand binding in the presence of a saturating concentration of (+)-Butaclamol (10 μM), a D1 antagonist. After a 30 minute incubation period at 37° C., assay samples were rapidly filtered through Unifilter-96 GF/B PEI-coated filter plates and rinsed with 50 mM Tris buffer (pH 7.4 at 4° C.). […] Ki values were calculated according to the Cheng-Prusoff equation: […]

Chain of Human D1 Receptor (P21728 whole entry): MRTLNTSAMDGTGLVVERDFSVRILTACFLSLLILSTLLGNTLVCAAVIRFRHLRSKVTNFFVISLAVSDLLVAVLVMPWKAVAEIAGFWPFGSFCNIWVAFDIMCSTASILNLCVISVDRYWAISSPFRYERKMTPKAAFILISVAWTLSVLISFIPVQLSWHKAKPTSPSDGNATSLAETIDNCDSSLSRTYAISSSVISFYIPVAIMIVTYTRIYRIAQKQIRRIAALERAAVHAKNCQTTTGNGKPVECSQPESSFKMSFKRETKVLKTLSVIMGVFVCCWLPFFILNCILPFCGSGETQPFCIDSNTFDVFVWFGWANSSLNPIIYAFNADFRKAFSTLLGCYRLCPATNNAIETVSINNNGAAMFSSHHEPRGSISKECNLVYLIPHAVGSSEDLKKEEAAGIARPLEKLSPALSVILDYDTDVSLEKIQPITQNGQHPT

Ki (competition with 0.5 nM [^3H]-SCH23390, over-expressing LTK human cell lines, 30 min at 37° C., values marked ^a are from a single determination)	SMILES	Ki
–	Cc1cc(Oc2ncnc3occc23)ccc1-c1c(C)ncnc1C [Example 1, 4-[4-(4,6-dimethylpyrimidin-5-yl)-3-methylphenoxy]furo[2,3-d]pyrimidine]	166 nM
–	Cc1cc(Oc2nccc3[nH]cnc23)ccc1-c1c(C)ncc2nccn12 [Example 2, 4-[3-methyl-4-(6-methylimidazo[1,2-a]pyrazin-5-yl)phenoxy]-1H-imidazo[4,5-c]pyridine]	374 nM
32.7 nM	Cc1cc(Oc2nccc3sncc23)ccc1-c1c(C)n[nH]c(=O)c1C [Example 10, 4,6-dimethyl-5-[2-methyl-4-([1,2]thiazolo[4,5-c]pyridin-4-yloxy)phenyl]pyridazin-3(2H)-one]	–
